Results: US20240263068A1, “AIE Fluorescent Probe Composition, Method and Device for Measuring CMC of Surfactant Solution, and Method and Device for CMC Determination” (Moon House (China) Co., Ltd., priority 2022, published 2024)
Read-outs that look alike come from different tables or passages of the source. Each block holds one compound with its values, some of them ahead of it.

Tests used:
[1] = Fluorescence emission peaks excited by 365 nm ultraviolet light; type: physicochemical
Excerpt: That is, the wavelength range of 400-550 nm within which the emission peaks of the fluorescent whitening agent CBS occur is avoided. In this way, the interference of the fluorescent whitening agent with the CMC determination result may be avoided.

[2] = Excerpt: It is generally believed that the type or polarity of a solvent almost has no influence on the fluorescence absorption or emission spectrum of the HPS.
[3] = cited from earlier work

SMILES: O=S(=O)([O-])c1ccccc1C=Cc1ccc(-c2ccc(C=Cc3ccccc3S(=O)(=O)[O-])cc2)cc1.[Na+].[Na+] [CBS]
Wavelength range of emission peaks ([1]; fluorescent whitening agent in detergent): 400-550 nm

SMILES: c1ccc(C2=C(c3ccccc3)[Si](c3ccccc3)(c3ccccc3)C(c3ccccc3)=C2c2ccccc2)cc1 [HPS, 1,1,2,3,4,5-hexaphenylsilole]
Fluorescence emission peak, sharp with high intensity ([1]; excited by 365 nm): 350-370 nm
Fluorescence emission peak, wide and short with relatively low intensity ([1]; excited by 365 nm): 720-740 nm
Solubility of HPS ([3]; alcohols such as methanol): slightly soluble
Solubility of HPS ([3]; good solvents such as acetonitrile, tetrahydrofuran and chloroform): highly soluble
Solubility of HPS ([3]; water): completely insoluble
Solubility of HPS powder in water [2]: insoluble in water

SMILES: c1ccc2ncccc2c1 [Quinoline]
Solubility of HPS to Solvent [2]: soluble

SMILES: CCCCCO [n-pentanol]
Solubility of HPS to Solvent [2]: slightly soluble

Continued, values first:

Solubility of HPS to Solvent [2]: soluble
SMILES: C[S+](C)[O-] [DMSO]

Solubility of HPS to Solvent [2]: soluble
SMILES: CN1CCCC1=O [NMP]
